Laboratory results as given in EPA's ToxValDB 9.5 (doi:10.2903/j.efsa.2014.3508).

Columns and labels:
[1] = test system: Apis mellifera; conditions: acute, mortality
[2] = test system: Colinus virginianus; conditions: acute, oral, mortality
[3] = test system: Coturnix japonica; conditions: reproduction developmental; duration: 6 weeks; reproduction
[4] = test system: Daphnia magna; conditions: chronic/long-term; duration: 21 days; mobility
[5] = test system: Lepomis macrochirus; conditions: acute; duration: 96 hours; mortality
[6] = test system: Oncorhynchus mykiss; conditions: chronic/long-term; duration: 87 days; growth
[7] = test system: Oryctolagus sp.; conditions: developmental; development
[8] = test system: Rattus norvegicus
[9] = test system: Tagia sp.
[10] = test system: Aphidius rhopalosiphi; test: LR50; higher = less toxic; conditions: acute; duration: 48 hours; mortality
[11] = test system: Typhlodromus pyri; test: LR50; higher = less toxic; conditions: chronic/long-term; duration: 7 days; mortality

In the case of `CCOc1nc(NC)nc(NC(=O)NS(=O)(=O)c2ccccc2C(=O)OC)n1` [Ethametsulfuron-methyl], the LD50 ([1]; duration: 48 hours, oral, unspecified) is reported as 40.8 µg/piece, the LD50 ([1]; duration: 72 hours, dermal) is reported as 4.62 µg/piece and the LC50 ([2]; duration: 5 days, diet) is reported as > 1160 mg/kg-day. The LD50 [2] was 2250 mg/kg-day, the NOAEL [3] was 229 mg/kg-day and the NOEC [4] was 4.7 mg/L. For the same compound, the LC50 [5] was > 123 µg/mL, the NOEC [6] was 5.4 mg/L and the NOAEL [7] was < 250 mg/kg-day. The LD50 ([8]; acute, oral, mortality) was > 5000 mg/kg-day, the NOAEL ([8]; chronic, duration: 2 years, clinical chemistry) was 21 mg/kg-day and the LC50 ([9]; acute, duration: 14 days, mortality) was 116 mg/kg. The NOEC ([9]; chronic/long-term, duration: 56 days, reproduction) was 27.3 mg/kg, the LR50 [10] was > 18.8 g/ha and the LR50 [11] was 11.4 g/ha.
